# What was measured:
# PfMTIP-MyoA = target: T1, PfMTIP-MyoA (Plasmodium falciparum, UniProt Q8I4W8); assay: SPR MTIP-MyoA PPI; format: binding, P. falciparum
# T1 construct: made in house; host or cells: E. coli BL21 DE3 (peptide)
# Description: Atg8-Atg3, Aldolase-TRAP, and Aldolase-MTRAP, MTIP-MyoA, GAP50-FactorH protein-protein interaction (PPI) inhibitor and Surface Plasmon Resonance screening to identify protein-protein interaction inhibitors, Bosch group (Atg8-Atg3 interactions are published in ref [38], rest are not or as noted below). In a primary screen, the Malaria Box compounds were screened at 5 µM final concentration in 1x PBS supplemented with 0.01% (v/v) P20 and 1% (v/v) DMSO using a Biacore 3000 instrument. While one protein was covalently attached to the chip surface via amine coupling, the analyte was passed over the chip in the presence and absence of Malaria Box compounds. Every 12th injection a positive control was passed over the chip to ensure constant binding of the partner protein during the duration of the experiment. Malaria Box compounds resulting in more than 25% decrease in binding of the two proteins to each other were further considered in a dose-response screen ranging from 50 µM to 200 nM. Similar to the primary screen, a positive control, consisting of the protein partner alone in the absence of small molecule compounds, was passed over the flow cells to ensure that the chip surface had not decayed over the course of the experiment. All SPR interaction studies were performed as previously described. […]
# PfPMT = PfPMT (Plasmodium falciparum, UniProt Q8IDQ9); assay: PfPMT gene replacement yeast growth; conditions: 100µM
# [1] = test system: Saccharomyces cerevisiae strain WC081; assay: Yeast disc diffusion in combination with artemisinin; format: cell-based; conditions: 10 µL of 1 mM on disc, 0.2 µM artemisinin, read-out: larger zone size with artemisinin (SCG+artemisinin minus SCG)
# Description: Yeast screening for enhanced drug effects in combination with artemisinin, Jensen group (data presented first in this paper). […] Yeast (S. cerevisiae) was used as a proxy for P. falciparum, because the killing of S. cerevisiae and P. falciparum appear to have similarities. Saccharomyces cerevisiae strain WC081 (Mat a, leu2∆0, lys2∆0, ura3∆0, his3∆1, pdr1∆::HIS3, pdr3∆::kanMX4) was utilized and was originally derived from strain BY4742. Regulators of Multi-drug resistance transporters have been deleted from this strain to enhance the toxicity of compounds. Assay utilized the disc diffusion method with the observance of a clear zone indicating inhibition of growth. Synthetic complete medium containing 3% glycerol as a carbon source (SCG) was used in each assay. 10 µL of each compound at 1 mM was added to a paper disc which was placed on SCG and SCG^+artemisinin (0.2 µM) plates seeded with 10e6 yeast cells. Plates were incubated at 30 °C for 5 days and clear zones were measured. Compounds that produced a larger clear zone in the presence of artemisinin were considered to have an additive interaction with artemisinin. Results are reported as diameter of clear zone on SCG^+artemisinin plates - diameter of clear zone on SCG plates without artemisinin.
# [2] = test system: P. falciparum 3D7 trophozoites; assay: Metabolomic fingerprint profiling LC-MS; format: cell-based, Plasmodium falciparum; parameters: UDP-D-glucose / ADP-D-glucose: unit not given here
# P. falciparum = assay: EC50 listed in S2 Table Metabolomics (used to set the concentration tested); format: cell-based; conditions: Plasmodium falciparum; EC50 used for Factor_XEC50 in metabolomics; read-out: EC50_nM
# [3] = metabolite level change after treatment
# T1 sequence (Q8I4W8 entry or part of it): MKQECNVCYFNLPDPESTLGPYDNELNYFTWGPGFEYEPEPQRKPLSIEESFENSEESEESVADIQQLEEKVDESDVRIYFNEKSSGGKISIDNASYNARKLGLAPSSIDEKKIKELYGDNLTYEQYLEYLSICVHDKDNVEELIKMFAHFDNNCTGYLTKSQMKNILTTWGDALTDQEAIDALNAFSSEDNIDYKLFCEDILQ
# Chain of PfPMT (Q8IDQ9 whole entry, the tested form may be a part): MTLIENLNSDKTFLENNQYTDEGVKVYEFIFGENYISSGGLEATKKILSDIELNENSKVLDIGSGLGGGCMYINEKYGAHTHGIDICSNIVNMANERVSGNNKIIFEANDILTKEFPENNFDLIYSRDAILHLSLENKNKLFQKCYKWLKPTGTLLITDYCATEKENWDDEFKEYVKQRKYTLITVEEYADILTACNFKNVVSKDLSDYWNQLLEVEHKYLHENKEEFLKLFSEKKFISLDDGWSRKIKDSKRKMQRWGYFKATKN
smiles,measurement,setting,value
O=C(NC(c1ccccc1)c1ccc2cccnc2c1O)c1ccccc1 (stereo not drawn) [MMV666080],identified against the PfMTIP-MyoA interaction,PfMTIP-MyoA,identified against the PfMTIP-MyoA interaction
same,candidate inhibitors of PfPMT activity (yeast functional assay),PfPMT,candidate inhibitors of PfPMT activity
Cc1ccc(CN2CCC(C(=O)Nc3ccc(-c4cc5ccccc5[nH]4)cc3)CC2)o1 [MMV666071],identified against the PfMTIP-MyoA interaction,PfMTIP-MyoA,identified against the PfMTIP-MyoA interaction
Cc1cc(Nc2ccc3ccccc3c2)n2ncnc2n1 [MMV011099],zone of inhibition at 1000 µM,[1],7 mm
same,Acetyllysine,"[2]; S2 Table Metabolomics, metabolite Acetyllysine",0.02852
same,N-acetyl-L-ornithine,"[2]; S2 Table Metabolomics, metabolite N-acetyl-L-ornithine",0.1505
same,N-carbamoyl-L-aspartate,"[2]; S2 Table Metabolomics, metabolite N-carbamoyl-L-aspartate",3.868
same,NADPH,"[2]; S2 Table Metabolomics, metabolite NADPH",1.182
same,dAMP,"[2]; S2 Table Metabolomics, metabolite dAMP",-0.08024
same,dCMP,"[2]; S2 Table Metabolomics, metabolite dCMP",-0.5906
same,dTDP,"[2]; S2 Table Metabolomics, metabolite dTDP",-1.017
same,dTMP,"[2]; S2 Table Metabolomics, metabolite dTMP",-0.9279
same,dTTP,"[2]; S2 Table Metabolomics, metabolite dTTP",-1.156
same,dihydroorotate,"[2]; S2 Table Metabolomics, metabolite dihydroorotate",4.157
same,orotate,"[2]; S2 Table Metabolomics, metabolite orotate",-1.974
same,DLH,"[2]; S2 Table Metabolomics, peptide DLH",0.4532
same,DLS/SDL/SID,"[2]; S2 Table Metabolomics, peptide DLS/SDL/SID",0.4641
same,PD,"[2]; S2 Table Metabolomics, peptide PD",0.1181
same,PEE,"[2]; S2 Table Metabolomics, peptide PEE",0.2947
same,PVNF,"[2]; S2 Table Metabolomics, peptide PVNF",0.2329
same,3-phosphoglycerate,"[2]; metabolite 3-phosphoglycerate, S2 Table Metabolomics",-0.2056
same,ADP-D-glucose,"[2]; metabolite ADP-D-glucose, S2 Table Metabolomics",0.1525
same,ATP,"[2]; metabolite ATP, S2 Table Metabolomics",0.2332
same,CDP,"[2]; metabolite CDP, S2 Table Metabolomics, change in metabolite level after compound treatment",-0.709
same,D-sedoheptulose-1/7-phosphate,"[2]; metabolite D-sedoheptulose-1/7-phosphate, S2 Table Metabolomics, change in metabolite level after compound treatment",0.01889
same,FAD,"[2]; metabolite FAD, S2 Table Metabolomics",0.08024
same,GMP,"[2]; metabolite GMP, S2 Table Metabolomics, change in metabolite level after compound treatment",0.02967
same,NAD+,"[2]; metabolite NAD+, S2 Table Metabolomics",-0.0008425
same,NADP+,"[2]; metabolite NADP+, S2 Table Metabolomics",0.1353
same,Octoluse Bisphosphate,"[2]; metabolite Octoluse Bisphosphate, S2 Table Metabolomics, change in metabolite level after compound treatment",0.08614
same,Pyroglutamic acid,"[2]; metabolite Pyroglutamic acid, S2 Table Metabolomics",-0.4752
same,UDP-D-glucose,"[2]; metabolite UDP-D-glucose, S2 Table Metabolomics",0.067
same,UDP-D-glucuronate,"[2]; metabolite UDP-D-glucuronate, S2 Table Metabolomics",-0.02366
same,UDP-N-acetyl-glucosamine,"[2]; metabolite UDP-N-acetyl-glucosamine, S2 Table Metabolomics",-0.1127
same,UDP,"[2]; metabolite UDP, S2 Table Metabolomics, change in metabolite level after compound treatment",-1.3628
same,UMP,"[2]; metabolite UMP, S2 Table Metabolomics, change in metabolite level after compound treatment",-1.675
same,UTP,"[2]; metabolite UTP, S2 Table Metabolomics, change in metabolite level after compound treatment",-1.64
same,a-ketoglutarate,"[2]; metabolite a-ketoglutarate, S2 Table Metabolomics",-1.062
same,citrate/isocitrate,"[2]; metabolite citrate/isocitrate, S2 Table Metabolomics, change in metabolite level after compound treatment",-1.28
same,cytidine,"[2]; metabolite cytidine, S2 Table Metabolomics",0.7717
same,dATP,"[2]; metabolite dATP, S2 Table Metabolomics",0.5433
same,dGMP/AMP,"[2]; metabolite dGMP/AMP, S2 Table Metabolomics, change in metabolite level after compound treatment",-0.03244
same,fumarate,"[2]; metabolite fumarate, S2 Table Metabolomics, change in metabolite level after compound treatment",-1.091
same,glucose-1/6-phosphate,"[2]; metabolite glucose-1/6-phosphate, S2 Table Metabolomics, change in metabolite level after compound treatment",0.2093
same,glycerate,"[2]; metabolite glycerate, S2 Table Metabolomics, change in metabolite level after compound treatment",-1.246
same,guanine,"[2]; metabolite guanine, S2 Table Metabolomics, change in metabolite level after compound treatment",-0.547
same,guanosine,"[2]; metabolite guanosine, S2 Table Metabolomics, change in metabolite level after compound treatment",-1.524
same,hypoxanthine,"[2]; metabolite hypoxanthine, S2 Table Metabolomics",0.001118
same,indole,"[2]; metabolite indole, S2 Table Metabolomics",0.03287
same,inosine,"[2]; metabolite inosine, S2 Table Metabolomics, change in metabolite level after compound treatment",-0.4013
same,2_3-Diphosphoglyceric acid,[2]; [3],-0.01924
same,4-phosphopantothenate,[2]; [3],-0.6208
same,6-phospho-D-gluconate,[2]; [3],0.1135
same,FMN,[2]; [3],-0.06047
same,IMP,[2]; [3],-0.0451
same,Pyrophosphate,[2]; [3],0.1187
same,Sedoheptoluse bisphosphate,[2]; [3],-0.1999
same,cyclic-AMP,[2]; [3],-0.1393
same,glutathione disulfide,[2]; [3],-0.2357
same,lactate,[2]; [3],-0.8843
same,myo-inositol,[2]; [3],-1.14
same,nicotinate,"[2]; metabolite nicotinate, S2 Table Metabolomics",-1.365
same,ornithine,"[2]; metabolite ornithine, S2 Table Metabolomics",0.02843
same,phosphoenolpyruvate,"[2]; metabolite phosphoenolpyruvate, S2 Table Metabolomics",-0.5081
same,pyruvate,"[2]; metabolite pyruvate, S2 Table Metabolomics, change in metabolite level after compound treatment",-1.9111
same,ribose-phosphate,"[2]; metabolite ribose-phosphate, S2 Table Metabolomics",0.184
same,sarcosine/alanine,"[2]; metabolite sarcosine/alanine, S2 Table Metabolomics, change in metabolite level after compound treatment",-0.4398
same,sn-glycerol-3-phosphate,"[2]; metabolite sn-glycerol-3-phosphate, S2 Table Metabolomics",-0.3081
same,succinate/methylmalonic acid,"[2]; metabolite succinate/methylmalonic acid, S2 Table Metabolomics, change in metabolite level after compound treatment",-0.5239
same,uridine,"[2]; metabolite uridine, S2 Table Metabolomics, change in metabolite level after compound treatment",-1.376
same,xanthosine,"[2]; metabolite xanthosine, S2 Table Metabolomics, change in metabolite level after compound treatment",-0.974
same,EC50,P. falciparum,242 nM
